Laboratory results reported in patent US9914730B2, “Azaquinazoline inhibitors of Atypical protein Kinase C” (Ignyta, Inc., priority 2012, dated 2018).

Molecular target: T1, full-length human PKCι (Homo sapiens, UniProt P41743)
T1 construct: Recombinant, full-length human PKCι expressed in Sf21 insect cells is also commercially available; purchased; host or cells: Sf21 insect cells
T1 sequence (P41743 1-596): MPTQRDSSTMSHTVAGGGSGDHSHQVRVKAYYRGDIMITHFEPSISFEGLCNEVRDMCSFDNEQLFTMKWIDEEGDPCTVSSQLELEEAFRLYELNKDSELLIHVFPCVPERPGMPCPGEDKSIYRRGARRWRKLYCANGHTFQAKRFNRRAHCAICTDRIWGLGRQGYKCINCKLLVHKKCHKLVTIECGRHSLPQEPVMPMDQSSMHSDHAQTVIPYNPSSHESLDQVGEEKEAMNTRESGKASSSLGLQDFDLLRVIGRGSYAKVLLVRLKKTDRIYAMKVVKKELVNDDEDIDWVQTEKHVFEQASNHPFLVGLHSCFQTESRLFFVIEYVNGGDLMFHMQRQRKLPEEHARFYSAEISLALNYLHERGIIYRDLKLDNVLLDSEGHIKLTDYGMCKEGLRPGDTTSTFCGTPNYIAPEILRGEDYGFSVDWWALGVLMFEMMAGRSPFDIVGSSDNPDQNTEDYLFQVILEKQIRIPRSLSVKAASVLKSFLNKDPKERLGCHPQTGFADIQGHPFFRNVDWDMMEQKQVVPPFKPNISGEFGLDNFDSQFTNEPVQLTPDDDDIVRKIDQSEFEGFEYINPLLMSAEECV
Assay: PKCι IC50 IMAP assay, full-length PKCι at 150 μM ATP
Type: biochemical
Settings: read-out: IC50 in IMAP assay against full length PKCi at 150 μM ATP
How it was run: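 IMAP fluorescence polarisation (ex 485/em 530 nm) read-out; % inhibition set from no-compound (0%) and no-enzyme (100%) controls, IC50 from dose-response curve fit. Sf21-expressed full-length enzyme ~15 pM, 100 nM FAM peptide, ATP 150 μM (5× KM^APP), 60 min at RT.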

SMILES: COc1cncc2nc(-c3ccnc(Nc4ccccc4)c3)nc(N3CC[C@@H](O)[C@H](O)C3)c12 (racemic) [Example 437, (±)-trans-1-[5-Methoxy-2-(2-phenylamino-pyridin-4-yl)-pyrido[3,4-d]pyrimidin-4-yl]-piperidine-3,4-diol]
- IC50: 100 to 1000 nM

SMILES: CC1(C)CN(c2nc(-c3ccnc4[nH]c(C(C)(C)C)cc34)nc3cncc(C4CC4)c23)CCN1 [Example 2002, 2-(2-tert-Butyl-1H-pyrrolo[2,3-b]pyridin-4-yl)-5-cyclopropyl-4-(3,3-dimethyl-piperazin-1-yl)-pyrido[3,4-d]pyrimidine]
- IC50: < 100 nM

SMILES: FC(F)(F)c1cc2c(-c3nc(N4CCNCC4)c4c(Br)cncc4n3)ccnc2[nH]1 [Example 2117, 5-Bromo-4-piperazin-1-yl-2-(2-trifluoromethyl-1H-pyrrolo[2,3-b]pyridin-4-yl)-pyrido[3,4-d]pyrimidine]
- IC50: < 100 nM

SMILES: CNC(=O)C1CCN(c2nc(-c3ccnc(Nc4c(F)cccc4F)c3)nc3cncc(C4CC4)c23)CC1 [Example 669, 1-{5-Cyclopropyl-2-[2-(2,6-difluoro-phenylamino)-pyridin-4-yl]-pyrido[3,4-d]pyrimidin-4-yl}-piperidine-4-carboxylic acid methylamide]
- IC50: 1000 to 10000 nM

SMILES: c1ccc2c(c1)OCCC2Nc1cc(-c2nc(N3CCNCC3)c3c(C4CC4)cncc3n2)ccn1 (centres unmarked) [Example 712, Chroman-4-yl-[4-(5-cyclopropyl-4-piperazin-1-yl-pyrido[3,4-d]pyrimidin-2-yl)-pyridin-2-yl]-amine]
- IC50: < 100 nM

SMILES: COc1cc(Nc2cc(-c3nc(N4CCNCC4)c4c(C5CC5)cncc4n3)ccn2)c(F)cc1F [Example 628, [4-(5-Cyclopropyl-4-piperazin-1-yl-pyrido[3,4-d]pyrimidin-2-yl)-pyridin-2-yl]-(2,4-difluoro-5-methoxy-phenyl)-amine]
- IC50: < 100 nM

SMILES: CC(C)(c1cc2c(-c3nc(N4CCNCC4)c4c(C5CCC5)cncc4n3)ccnc2[nH]1)C(F)(F)F [Example 2182, 5-Cyclobutyl-4-piperazin-1-yl-2-[2-(2,2,2-trifluoro-1,1-dimethyl-ethyl)-1H-pyrrolo[2,3-b]pyridin-4-yl]-pyrido[3,4-d]pyrimidine]
- IC50: < 100 nM

SMILES: FC(F)(F)CN1CCC(Nc2cc(-c3nc(N4CCNCC4)c4c(C5CC5)cncc4n3)ccn2)CC1 [Example 814, [4-(5-Cyclopropyl-4-piperazin-1-yl-pyrido[3,4-d]pyrimidin-2-yl)-pyridin-2-yl]-[1-(2,2,2-trifluoro-ethyl)-piperidin-4-yl]-amine]
- IC50: < 100 nM

SMILES: CC(=O)NC1CCN(c2nc(-c3ccnc(Nc4c(F)cccc4F)c3)nc3cncc(C4CC4)c23)CC1 [Example 657, N-(1-{5-Cyclopropyl-2-[2-(2,6-difluoro-phenylamino)-pyridin-4-yl]-pyrido[3,4-d]pyrimidin-4-yl}-piperidin-4-yl)-acetamide]
- IC50: 100 to 1000 nM

SMILES: Clc1ccnc(Nc2cc(-c3nc(N[C@@H]4CCNC4)c4ccncc4n3)ccn2)c1 [Example 339, {2-[2-(4-Chloro-pyridin-2-ylamino)-pyridin-4-yl]-pyrido[3,4-d]pyrimidin-4-yl}-(R)-pyrrolidin-3-yl-amine]
- IC50: < 100 nM

SMILES: COc1cncc2nc(-c3ccnc(Nc4cncc(Cl)c4)c3)nc(N3CCNCC3)c12 [Example 417, (5-Chloro-pyridin-3-yl)-[4-(5-methoxy-4-piperazin-1-yl-pyrido[3,4-d]pyrimidin-2-yl)-pyridin-2-yl]-amine]
- IC50: 100 to 1000 nM

SMILES: COc1cncc2nc(-c3ccnc(Nc4cc(C#N)ccn4)c3)nc(N3CCC[C@H](O)C3)c12 [Example 426, 2-{4-[4-((S)-3-Hydroxy-piperidin-1-yl)-5-methoxy-pyrido[3,4-d]pyrimidin-2-yl]-pyridin-2-ylamino}-isonicotinonitrile]
- IC50: 1000 to 10000 nM

SMILES: O=C1CN(c2nc(-c3ccncc3)nc3cnccc23)CCN1 [Example 27, 4-[2-(pyridin-4-yl)pyrido[3,4-d]-pyrimidin-4-yl]-piperazin-2-one]
- IC50: 10000 to 40000 nM

SMILES: COc1cncc2nc(-c3ccnc(Nc4ccc(-c5ccccc5)cn4)c3)nc(N[C@@H]3CCNC3)c12 [Example 329, {5-Methoxy-2-[2-(5-phenyl-pyridin-2-ylamino)-pyridin-4-yl]-pyrido[3,4-d]pyrimidin-4-yl}-(R)-pyrrolidin-3-yl-amine]
- IC50: < 100 nM

SMILES: C[C@@H](Nc1cc(-c2nc(N3CCNCC3)c3c(C4CCC4)cncc3n2)ccn1)c1ccccc1F [Example 2161, [4-(5-Cyclobutyl-4-piperazin-1-yl-pyrido[3,4-d]pyrimidin-2-yl)-pyridin-2-yl]-[(R)-1-(2-fluoro-phenyl)-ethyl]-amine]
- IC50: < 100 nM

SMILES: CCP(=O)(CC)c1ccc(Nc2cc(-c3nc(N4CCNCC4)c4c(C5CC5)cncc4n3)ccn2)cc1 [Example 550, [4-(5-Cyclopropyl-4-piperazin-1-yl-pyrido[3,4-d]pyrimidin-2-yl)-pyridin-2-yl]-[4-(diethyl-phosphinoyl)-phenyl]-amine]
- IC50: < 100 nM

SMILES: Nc1nccc2c(NC[C@@H](N)Cc3ccccc3)nc(N3CCOCC3)nc12 [Example 1013, N^4-((S)-2-Amino-3-phenyl-propyl)-2-morpholin-4-yl-pyrido[3,4-d]pyrimidine-4,8-diamine]
- IC50: 100 to 1000 nM

SMILES: COc1cncc2nc(-c3ccnc(Nc4cccc(C)c4F)c3)nc(N3CCNCC3)c12 [Example 451, (2-Fluoro-3-methyl-phenyl)-[4-(5-methoxy-4-piperazin-1-yl-pyrido[3,4-d]pyrimidin-2-yl)-pyridin-2-yl]-amine]
- IC50: < 100 nM

SMILES: N#Cc1cc(F)c(Nc2cc(-c3nc(N4CCNCC4)c4c(C5CC5)cncc4n3)ccn2)c(F)c1 [Example 740, 4-[4-(5-Cyclopropyl-4-piperazin-1-yl-pyrido[3,4-d]pyrimidin-2-yl)-pyridin-2-ylamino]-3,5-difluoro-benzonitrile]
- IC50: 100 to 1000 nM

SMILES: OC[C@H](Nc1cc(-c2nc(N3CCNCC3)c3c(C4CC4)cncc3n2)ccn1)c1ccccc1 [Example 2159, (R)-2-[4-(5-Cyclopropyl-4-piperazin-1-yl-pyrido[3,4-d]pyrimidin-2-yl)-pyridin-2-ylamino]-2-phenyl-ethanol]
- IC50: 100 to 1000 nM

SMILES: CC1CN(c2nc(-c3ccnc(Nc4nc(F)ccc4F)c3)nc3cncc(C4CC4)c23)CC(C)N1 (centres unmarked) [Example 763, {4-[5-Cyclopropyl-4-(3,5-dimethyl-piperazin-1-yl)-pyrido[3,4-d]pyrimidin-2-yl]-pyridin-2-yl}-(3,6-difluoro-pyridin-2-yl)-amine]
- IC50: < 100 nM

SMILES: FC(F)(F)c1ccc(Nc2cc(-c3nc(N4CCNCC4)c4c(C5CCC5)cncc4n3)ccn2)nc1 [Example 809, [4-(5-Cyclobutyl-4-piperazin-1-yl-pyrido[3,4-d]pyrimidin-2-yl)-pyridin-2-yl]-(5-trifluoromethyl-pyridin-2-yl)-amine]
- IC50: < 100 nM

SMILES: [2H]C1([2H])NC([2H])([2H])C([2H])([2H])N(c2nc(-c3ccnc(Nc4ccccc4)c3)nc3cncc(C4CC4)c23)C1([2H])[2H] [Example 636, {4-[5-Cyclopropyl-4-(2,2,3,3,5,5,6,6-octadeuterio-piperazin-1-yl)-pyrido[3,4-d]pyrimidin-2-yl]-pyridin-2-yl}-phenyl-amine]
- IC50: < 100 nM

SMILES: CS(=O)(=O)C[C@H]1CN(c2nc(-c3ccnc(NC(=O)C4CC4)c3)nc3cncc(C4CC4)c23)CCN1 [Example 773, Cyclopropanecar-boxylic acid {4-[5-cyclopropyl-4-((R)-3-methanesulfonyl-methyl-piperazin-1-yl)-pyrido[3,4-d]pyrimidin-2-yl]-pyridin-2-yl}-amide]
- IC50: 100 to 1000 nM

SMILES: c1ccc(C2CN(c3nc(-c4ccncc4)nc4cnccc34)CCN2)cc1 (centres unmarked) [Example 69, 3-phenyl-1-[2-(pyridin-4-yl)-pyrido[3,4-d]-pyrimidin-4-yl]-piperazine]
- IC50: 10000 to 40000 nM

SMILES: Fc1cc(F)nc(Nc2cc(-c3nc(N4CCNCC4)c4c(C5CC5)cncc4n3)ccn2)c1 [Example 836, [4-(5-Cyclopropyl-4-piperazin-1-yl-pyrido[3,4-d]pyrimidin-2-yl)-pyridin-2-yl]-(4,6-difluoro-pyridin-2-yl)-amine]
- IC50: < 100 nM

SMILES: CC(=O)NC1CCN(c2nc(-c3ccnc(Nc4c(F)cccc4F)c3)nc3cncc(C4CC4)c23)C1 (centres unmarked) [Example 713, N-(1-{5-Cyclopropyl-2-[2-(2,6-difluoro-phenylamino)-pyridin-4-yl]-pyrido[3,4-d]pyrimidin-4-yl}-pyrrolidin-3-yl)-acetamide]
- IC50: 100 to 1000 nM

SMILES: COc1cncc2nc(-c3ccnc(Nc4ccccc4)c3)nc(N3CCN[C@H](CF)C3)c12 [Example 235, {4-[4-((S)-3-Fluoro-methyl-piperazin-1-yl)-5-methoxy-pyrido[3,4-d]pyrimidin-2-yl]-pyridin-2-yl}-phenyl-amine]
- IC50: 100 to 1000 nM

SMILES: Fc1cc(F)c(-n2cc(Nc3cc(-c4nc(N5CCNCC5)c5c(C6CC6)cncc5n4)ccn3)cn2)c(F)c1 [Example 820, [4-(5-Cyclopropyl-4-piperazin-1-yl-pyrido[3,4-d]pyrimidin-2-yl)-pyridin-2-yl]-[1-(2,4,6-trifluoro-phenyl)-1H-pyrazol-4-yl]-amine]
- IC50: < 100 nM
